Measurements reported in US20070112068A1, “Nitrile compound and its use in pest control” (priority 2003, published 2007).

Experiments:
Format in all cases: in vivo
[1] = test system: Blattella germanica; assay: Experimental Example 18: smoking preparation in Peet-Grady chamber, Blattella germanica; settings: smoking preparation (Formulation Example 16); 2 hours exposure, after 72 hours
Method: Plastic cups (diameter: 12.5 cm, height: 8 cm) containing 10 (5 males and 5 females) imagoes of Blattella germanica were placed at the two corners of a Peet-Grady chamber with 1.8 m (width)×1.8 m (depth)×1.8 m (height). A plastic container containing water was placed at the center of the bottom of the Peet-Grady chamber and a smoking preparation of the present compound (31) prepared according to Formulation Example 16 was placed in this plastic cup. After 2 hours, Blattella germanica was collected, transferred to a 200 mL plastic cup, and left together with feed and water at 25° C. After 72 hours, the number of surviving Blattella germanica was examined and the death rate of the pest was calculated.

[2] = test system: Culex pipiens pallens; assay: Experimental Example 26: liquid-absorbing wick-type heat-vaporizing product, Culex pipiens pallens; settings: liquid-absorbing wick-type product (Formulation Example 19); 20 minutes exposure, after 24 hours
Description: A part of a liquid-absorbing wick-type heat-vaporizing pesticidal product of the present compound (31) prepared according to Formulation Example 19 is set on a heater for a liquid absorbing wick-type heat-vaporizing pesticide, and then placed on the center of the floor of a chamber having 70 cm (width)×70 cm (depth)×70 cm (height). After the part of a liquid-absorbing wick-type heat-vaporizing pesticidal product is initiated to be heated with the heater, about 20 female imagoes of Culex pipiens pallens are released in the chamber. After 20 minutes, all test pests are collected, placed in a plastic cup together with absorbent cotton impregnated with 5% sugar water, and left at 25° C.

[3] = test system: Blattella germanica; assay: Experimental Example 13: direct oil spray in CSMA chamber, Blattella germanica; settings: 1.5 ml of 0.025% (w/v) oil sprayed directly; after 3 days
Method: 7.5 mg of the present compound (31) was dissolved in 30 mL of a mixture of 90 parts by weight of Isopar M (isoparaffin, the registered trade name of Exxon Chemical) and 10 parts by weight of dichloromethane to prepare a 0.025% (w/v) oil. A plastic container (diameter: 9.5 cm, height: 4 cm, bottom part of 16 mesh wire) containing 10 imagoes (5 males and 5 females) of Blattella germanica was placed on the bottom of a CSMA chamber (width: 46 cm, depth: 46 cm, height: 70 cm).
1.5 ml of the oil was directly sprayed on test cockroaches from the upper side of the CSMA chamber. After 30 seconds from spraying, the container containing cockroaches was removed. All cockroaches were transferred to another clean plastic container (200 mL) and left together with feed and water at 25° C. After 3 days, the number of surviving Blattella germanica was examined and the death rate of the pest was calculated.

[4] = test system: Periplaneta americana; assay: Experimental Example 17: treated filter paper in paper box, Periplaneta americana; settings: 0.1 ml of 5% (w/v) acetone solution on filter paper in paper box; after 7 days
Method: A 5% (w/v) solution of the present compound (31) in acetone was prepared. 0.1 ml of the solution was added dropwise onto a filter paper with 2 cm×2 cm and then air-dried. This filter paper was attached to the center of the inside bottom of a paper box having 10 cm (width)×2 cm (height)×7 cm (depth) with a two-sided tape. One hole of 2 mm in width and 2 cm in height was made through one side of this box. This box was placed in a plastic vat with 25 cm×20 cm×8 cm in height and therein 3 females and 3 males of Periplaneta americana were released. The inside wall of the plastic vat used in this experiment was coated with talc for preventing the escape of cockroaches. The plastic vat contained feed and water and left at 25° C. After 7 days, Periplaneta americana was observed and the death rate of the pest was calculated. This experiment was repeated two times.

[5] = test system: Formica fusca japonica; assay: Experimental Example 20: poison bait, Formica fusca japonica; settings: poison bait: 1 ml of 0.1% by weight acetone solution per 1 g unrefined sugar; 0.5 g bait; after 48 hours
Method: 1 ml of a 0.1% by weight solution of the present compound (31) in acetone was added dropwise to 1 g of a commercially available powdery unrefined sugar, mixed thoroughly and then air-dried to obtain a poison bait. A cotton ball impregnated with water and 0.5 g of the poison bait on an aluminum dish were placed in a plastic cup (860 mL) containing 10 imagoes of Formica fusca japonica. After 48 hours, the number of surviving Formica fusca japonica was examined and the death rate of the pest was calculated.

N#CC(C#N)(CCC(F)(F)F)CC(F)(F)C(F)(F)C(F)(F)C(F)F [(31)]
death rate of the pest [1]: 100%
pesticidal effect [2]: pesticidal effect on Culex pipiens pallens is confirmed
death rate of the pest [3]: 100%
death rate of the pest [4]: 100%
death rate of Formica fusca japonica [5]: 100%
